# Laboratory results published in ChEMBL document CHEMBL1201862, “PubChem BioAssay data set” (2004).
# The source made the active and inactive calls.
# Assays:
# Large T antigen = Large T antigen (Simian virus 40, UniProt P03070); type: functional, Betapolyomavirus macacae;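 also: Confirmatory-stage PubChem screen for compounds that inhibit SV40 T antigen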
# [1] = target: Heat shock protein HSP 90-alpha (Homo sapiens, UniProt P07900); type: functional, organism-based
# [2] = inhibitors of HIV Env-driven cell fusion, dose response, cherry-pick (AID 652057); type: functional, cell-based
# [3] = inhibitors of clade B AD8 Env fusion, dose response, cell-based, cherry-pick (AID 652062); type: functional;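 also: luciferase signal from cell-cell fusion driven by HIV-1 clade B AD8 Env; potency is for inhibitors of fusion seen as a drop in luminescence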
# Cytochrome P450 2C9 = Cytochrome P450 2C9 (Homo sapiens, UniProt P11712)
# Chain of Cytochrome P450 2C9 (P11712 whole entry): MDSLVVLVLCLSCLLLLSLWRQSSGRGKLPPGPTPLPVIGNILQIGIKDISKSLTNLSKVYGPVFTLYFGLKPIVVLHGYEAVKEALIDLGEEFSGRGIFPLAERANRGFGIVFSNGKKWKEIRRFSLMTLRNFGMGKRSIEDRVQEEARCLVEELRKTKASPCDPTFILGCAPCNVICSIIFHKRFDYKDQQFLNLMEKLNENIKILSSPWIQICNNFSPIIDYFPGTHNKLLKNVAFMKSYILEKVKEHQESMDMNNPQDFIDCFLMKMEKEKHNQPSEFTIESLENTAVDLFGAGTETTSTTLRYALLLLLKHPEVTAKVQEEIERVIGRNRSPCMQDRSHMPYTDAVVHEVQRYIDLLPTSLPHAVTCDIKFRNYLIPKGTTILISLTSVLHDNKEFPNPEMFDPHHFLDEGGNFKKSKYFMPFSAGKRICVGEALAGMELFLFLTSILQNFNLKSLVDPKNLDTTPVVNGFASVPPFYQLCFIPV
# Cytochrome P450 1A2 = target: T1, Cytochrome P450 1A2 (Homo sapiens, UniProt P05177);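 also: PubChem cytochrome P450 panel assay, CYP1A2 panel member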
# T1 sequence (P05177 whole entry): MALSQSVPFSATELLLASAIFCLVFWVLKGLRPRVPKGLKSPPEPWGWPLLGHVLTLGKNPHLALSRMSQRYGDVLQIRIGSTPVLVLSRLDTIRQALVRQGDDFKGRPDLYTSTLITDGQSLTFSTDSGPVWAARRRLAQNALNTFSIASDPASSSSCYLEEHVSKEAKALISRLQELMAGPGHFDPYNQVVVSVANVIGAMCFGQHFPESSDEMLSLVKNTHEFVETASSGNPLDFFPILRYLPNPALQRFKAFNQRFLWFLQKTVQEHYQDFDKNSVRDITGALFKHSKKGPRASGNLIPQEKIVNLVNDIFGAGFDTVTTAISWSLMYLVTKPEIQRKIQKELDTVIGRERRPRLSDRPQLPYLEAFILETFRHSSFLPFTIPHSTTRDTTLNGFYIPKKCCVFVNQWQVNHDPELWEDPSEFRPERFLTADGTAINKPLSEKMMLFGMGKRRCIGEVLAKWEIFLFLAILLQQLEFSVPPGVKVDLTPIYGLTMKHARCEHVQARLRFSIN
# [4] = inhibitors of intracellular T. cruzi replication, confirmation, NIH3T3 host cells, beta-gal luminescence (AID 2044); type: functional, cell-based;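 also: intracellular parasites grown in NIH/3T3 mouse fibroblasts as host cells; luminescent beta-galactosidase reporter signal from transgenic T. cruzi replicating inside host cells; inhibitors lower the luminescence signal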
# [5] = growth suppression of PTEN-null colon cells, dose response, cell-based, HCT116 PTEN knockout (AID 1047); type: functional;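 also: HCT116 colon tumor cells with PTEN knocked out; cells exposed to compound for 60 hours before readout; potency for loss of cell viability measured by luminescence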
# [6] = cytotoxicity toward NIH3T3 fibroblasts, dose response, counter-screen, cell-based, ATP luminescence, mouse fibroblasts (AID 2010); type: functional;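 also: cells exposed to compound for about 90 hours before reading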
# [7] = growth suppression of beta-catenin-knockout colon cells, dose response, cell-based, HCT116, human colon tumor (AID 1045); type: functional;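 also: HCT116 colon tumor cells with beta catenin knocked out; cells exposed to compound for 60 hours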
# [8] = Luminescence Cell-Based Dose Retest to Confirm Inhibitors of Cancer Stem Cells. [Related pubchem assays (depositor defined):AID2717, AID2721]; type: functional; details: Homo sapiens
# [9] = target: T2, Ubiquitin-conjugating enzyme E2 N (Homo sapiens, UniProt P61088); type: functional;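 also: Dose-response confirmation in a TR-FRET assay detecting UBC13-driven polyubiquitin chain formation, inhibition measured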
# T2 sequence (P61088 whole entry): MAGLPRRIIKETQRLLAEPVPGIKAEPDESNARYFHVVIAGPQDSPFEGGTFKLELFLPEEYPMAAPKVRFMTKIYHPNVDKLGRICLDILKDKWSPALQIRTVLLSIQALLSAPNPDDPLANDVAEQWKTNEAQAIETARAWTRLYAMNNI
# [10] = system: Streptococcus sp. 'group A'; assay: growth inhibition of control SK(-) GAS strain, dose response, counter-screen for streptokinase expression inhibitor project, luminescence, kanamycin, BacTiterGlo, confirmation (AID 1900); type: functional, organism-based
# Streptococcus = assay: Group A Streptococcus viability loss, dose response, counter-screen for streptokinase expression inhibitor project, luminescence, BacTiterGlo (AID 1915); type: functional, organism-based;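 also: potency for reduction of bacterial viability or growth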
# INS1 = assay: beta cell apoptosis inhibitors, cytokine rescue, dose response, luminescence, retest (AID 449756); type: functional, cell-based; details: Rattus norvegicus;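 also: cell death triggered by IL-1 beta plus TNF-alpha plus IFN-gamma mixture; protective hits raise ATP signal compared with cytokine alone wells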
# [11] = target: T3, Polyadenylate-binding protein 1 (Homo sapiens, UniProt P11940); assay: PABP1 MLLE–PAM2 interaction inhibitors, dose response, miRNA deadenylation inhibitor project, biochemical, fluorescence polarization, Cy5-PAM2 peptide, secondary (AID 602260); type: functional; details: read-out: IC50_Mean
# T3 sequence (P11940 whole entry): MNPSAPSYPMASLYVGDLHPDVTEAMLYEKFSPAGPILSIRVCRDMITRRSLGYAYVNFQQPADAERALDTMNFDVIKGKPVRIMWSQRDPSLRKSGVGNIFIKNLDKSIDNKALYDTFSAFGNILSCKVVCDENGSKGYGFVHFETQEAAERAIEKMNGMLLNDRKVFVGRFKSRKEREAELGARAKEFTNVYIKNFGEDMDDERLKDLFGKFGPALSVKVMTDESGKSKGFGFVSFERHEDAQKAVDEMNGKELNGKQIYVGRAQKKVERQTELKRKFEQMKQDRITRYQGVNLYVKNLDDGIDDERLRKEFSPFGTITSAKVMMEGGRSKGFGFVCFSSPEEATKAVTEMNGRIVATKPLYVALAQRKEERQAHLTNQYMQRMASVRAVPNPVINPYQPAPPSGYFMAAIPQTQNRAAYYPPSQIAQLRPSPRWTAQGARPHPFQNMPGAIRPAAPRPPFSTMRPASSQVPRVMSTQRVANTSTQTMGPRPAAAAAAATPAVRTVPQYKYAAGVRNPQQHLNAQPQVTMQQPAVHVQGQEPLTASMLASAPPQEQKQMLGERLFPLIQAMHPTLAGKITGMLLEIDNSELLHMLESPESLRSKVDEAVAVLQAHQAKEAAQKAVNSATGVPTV
# [12] = target: T3, Polyadenylate-binding protein 1; assay: PABP1 MLLE–PAM2 binding inhibitor potency, dose response, biochemical, fluorescence polarization, FITC-PAM2 peptide (AID 602259); type: functional; details: read-out: IC50_Mean
# [13] = target: Voltage-dependent T-type calcium channel subunit alpha-1H (Homo sapiens, UniProt O95180); type: functional;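 also: channel activity triggered by adding a high calcium stimulation buffer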
# Chain of Voltage-dependent T-type calcium channel subunit alpha-1H (O95180 whole entry): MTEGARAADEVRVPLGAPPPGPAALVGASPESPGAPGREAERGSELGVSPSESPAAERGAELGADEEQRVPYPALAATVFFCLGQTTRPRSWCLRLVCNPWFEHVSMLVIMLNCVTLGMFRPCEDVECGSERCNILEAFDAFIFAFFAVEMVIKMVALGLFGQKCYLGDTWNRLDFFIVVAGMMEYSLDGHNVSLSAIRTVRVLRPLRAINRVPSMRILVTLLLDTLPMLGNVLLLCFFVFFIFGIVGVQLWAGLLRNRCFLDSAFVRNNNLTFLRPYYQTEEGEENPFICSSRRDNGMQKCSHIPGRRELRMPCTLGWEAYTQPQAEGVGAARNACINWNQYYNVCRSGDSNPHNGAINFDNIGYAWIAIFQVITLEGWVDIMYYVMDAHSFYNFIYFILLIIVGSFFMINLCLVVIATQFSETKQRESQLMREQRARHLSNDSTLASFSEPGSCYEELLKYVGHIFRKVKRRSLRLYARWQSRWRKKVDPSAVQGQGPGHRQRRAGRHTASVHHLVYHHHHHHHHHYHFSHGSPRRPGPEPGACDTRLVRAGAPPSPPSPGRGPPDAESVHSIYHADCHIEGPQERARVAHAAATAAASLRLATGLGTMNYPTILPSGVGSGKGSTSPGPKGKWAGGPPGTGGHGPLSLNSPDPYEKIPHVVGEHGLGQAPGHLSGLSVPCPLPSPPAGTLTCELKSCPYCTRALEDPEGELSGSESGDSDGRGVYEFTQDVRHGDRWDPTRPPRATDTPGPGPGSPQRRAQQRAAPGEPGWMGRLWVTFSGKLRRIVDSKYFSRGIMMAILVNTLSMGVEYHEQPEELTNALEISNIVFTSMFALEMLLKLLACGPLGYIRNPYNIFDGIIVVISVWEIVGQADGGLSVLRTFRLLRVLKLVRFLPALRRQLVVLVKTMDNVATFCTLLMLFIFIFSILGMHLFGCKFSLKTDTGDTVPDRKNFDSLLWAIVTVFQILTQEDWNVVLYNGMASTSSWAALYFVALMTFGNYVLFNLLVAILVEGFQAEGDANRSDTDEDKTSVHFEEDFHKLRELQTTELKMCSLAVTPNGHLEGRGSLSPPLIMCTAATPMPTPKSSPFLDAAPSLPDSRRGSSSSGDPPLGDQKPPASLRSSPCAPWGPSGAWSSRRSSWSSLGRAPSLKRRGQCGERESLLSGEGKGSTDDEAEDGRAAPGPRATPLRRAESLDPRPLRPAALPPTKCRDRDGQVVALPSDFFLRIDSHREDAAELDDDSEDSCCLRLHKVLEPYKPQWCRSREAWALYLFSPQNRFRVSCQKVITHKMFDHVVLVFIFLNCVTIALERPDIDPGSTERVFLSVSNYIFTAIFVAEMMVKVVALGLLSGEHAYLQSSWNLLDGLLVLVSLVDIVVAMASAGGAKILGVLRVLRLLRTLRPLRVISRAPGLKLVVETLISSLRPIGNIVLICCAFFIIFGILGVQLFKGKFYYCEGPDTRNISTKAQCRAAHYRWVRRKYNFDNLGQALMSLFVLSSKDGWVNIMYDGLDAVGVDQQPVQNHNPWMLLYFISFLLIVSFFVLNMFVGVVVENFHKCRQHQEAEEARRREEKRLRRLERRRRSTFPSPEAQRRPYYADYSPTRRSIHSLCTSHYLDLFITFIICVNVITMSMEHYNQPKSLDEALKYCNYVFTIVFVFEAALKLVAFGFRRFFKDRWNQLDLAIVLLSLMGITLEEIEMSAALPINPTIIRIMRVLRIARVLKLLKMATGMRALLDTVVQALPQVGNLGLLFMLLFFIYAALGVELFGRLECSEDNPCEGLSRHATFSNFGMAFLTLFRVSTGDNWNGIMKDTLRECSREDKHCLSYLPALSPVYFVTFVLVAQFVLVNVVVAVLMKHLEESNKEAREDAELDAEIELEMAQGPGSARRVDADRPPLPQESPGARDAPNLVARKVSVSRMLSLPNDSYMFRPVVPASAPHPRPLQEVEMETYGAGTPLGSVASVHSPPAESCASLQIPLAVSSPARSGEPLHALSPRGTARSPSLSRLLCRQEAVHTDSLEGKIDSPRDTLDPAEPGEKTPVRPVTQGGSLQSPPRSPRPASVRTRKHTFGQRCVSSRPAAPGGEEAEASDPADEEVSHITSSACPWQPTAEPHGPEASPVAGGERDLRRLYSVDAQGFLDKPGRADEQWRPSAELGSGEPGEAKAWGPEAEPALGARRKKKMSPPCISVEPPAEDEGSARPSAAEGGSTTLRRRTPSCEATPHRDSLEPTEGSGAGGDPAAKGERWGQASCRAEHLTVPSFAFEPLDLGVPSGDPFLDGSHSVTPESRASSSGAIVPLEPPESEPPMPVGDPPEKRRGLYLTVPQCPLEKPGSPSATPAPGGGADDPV
# [14] = target: T4, Replicative DNA helicase DnaB (Mycobacterium tuberculosis, UniProt P9WMR3); assay: DnaB intein splicing inhibitors, dose response, biochemical, cell-free fluorescence (AID 449749); type: functional
# T4 sequence (P9WMR3 whole entry): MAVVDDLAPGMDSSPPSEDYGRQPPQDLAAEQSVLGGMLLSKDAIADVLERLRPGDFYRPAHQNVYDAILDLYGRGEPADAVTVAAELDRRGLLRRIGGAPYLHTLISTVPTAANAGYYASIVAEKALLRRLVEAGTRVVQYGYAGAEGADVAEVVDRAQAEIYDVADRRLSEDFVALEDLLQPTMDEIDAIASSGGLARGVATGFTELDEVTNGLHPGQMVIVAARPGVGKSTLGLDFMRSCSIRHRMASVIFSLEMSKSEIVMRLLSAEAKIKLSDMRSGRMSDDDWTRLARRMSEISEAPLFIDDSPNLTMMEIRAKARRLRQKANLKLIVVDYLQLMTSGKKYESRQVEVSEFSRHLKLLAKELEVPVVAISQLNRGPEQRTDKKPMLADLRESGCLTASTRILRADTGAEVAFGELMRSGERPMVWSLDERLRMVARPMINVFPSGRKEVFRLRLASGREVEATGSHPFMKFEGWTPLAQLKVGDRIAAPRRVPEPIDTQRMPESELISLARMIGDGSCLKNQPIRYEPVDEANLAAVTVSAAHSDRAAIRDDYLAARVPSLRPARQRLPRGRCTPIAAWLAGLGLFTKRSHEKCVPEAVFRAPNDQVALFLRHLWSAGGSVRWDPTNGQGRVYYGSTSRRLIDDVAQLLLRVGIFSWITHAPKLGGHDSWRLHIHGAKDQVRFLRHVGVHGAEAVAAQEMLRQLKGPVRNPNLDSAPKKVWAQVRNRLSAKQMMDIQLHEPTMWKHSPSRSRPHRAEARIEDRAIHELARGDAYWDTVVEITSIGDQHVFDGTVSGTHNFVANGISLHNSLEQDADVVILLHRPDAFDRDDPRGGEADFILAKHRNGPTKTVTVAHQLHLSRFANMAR
# Protein RecA = target: T5, Protein RecA (Mycobacterium tuberculosis, UniProt P9WHJ3); assay: Fluorescence Cell-Free Homogeneous Dose Retest to Identify Inhibitors of RecA-Intein Splicing Activity. [Related pubchem assays (depositor defined):AID2097, AID2223, AID489010, AID492950]; type: functional
# T5 sequence (P9WHJ3 whole entry): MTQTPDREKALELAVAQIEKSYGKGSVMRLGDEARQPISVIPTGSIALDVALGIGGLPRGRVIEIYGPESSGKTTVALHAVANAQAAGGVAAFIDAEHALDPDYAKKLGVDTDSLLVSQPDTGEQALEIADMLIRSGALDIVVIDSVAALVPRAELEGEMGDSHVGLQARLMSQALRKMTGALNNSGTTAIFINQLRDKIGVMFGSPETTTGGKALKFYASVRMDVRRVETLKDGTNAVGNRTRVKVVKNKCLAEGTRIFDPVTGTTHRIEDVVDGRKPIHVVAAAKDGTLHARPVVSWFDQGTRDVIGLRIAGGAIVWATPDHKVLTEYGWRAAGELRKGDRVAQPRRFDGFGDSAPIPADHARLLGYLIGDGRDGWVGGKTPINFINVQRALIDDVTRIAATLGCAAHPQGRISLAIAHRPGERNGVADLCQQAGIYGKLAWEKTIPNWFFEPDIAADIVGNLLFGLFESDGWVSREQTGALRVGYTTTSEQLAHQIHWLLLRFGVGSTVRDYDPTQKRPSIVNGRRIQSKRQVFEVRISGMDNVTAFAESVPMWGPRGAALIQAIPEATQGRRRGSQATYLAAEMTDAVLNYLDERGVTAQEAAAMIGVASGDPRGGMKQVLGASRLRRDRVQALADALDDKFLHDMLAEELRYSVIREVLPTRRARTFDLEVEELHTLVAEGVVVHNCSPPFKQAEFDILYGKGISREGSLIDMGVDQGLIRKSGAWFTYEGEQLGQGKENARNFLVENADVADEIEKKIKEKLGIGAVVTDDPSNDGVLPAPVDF
# Cytochrome P450 2C19 = Cytochrome P450 2C19 (Homo sapiens, UniProt P33261); assay: Cytochrome panel assay with activity outcomes. Panel member name: p450-cyp2c19 Compounds with AC50 equal or less than 10 uM are considered active; type: functional; details: read-out: AC50
# [15] = NIH-3T3 fibroblast cytotoxicity, dose response, cytotoxicity control, cell-based, fluorescence, Alamar Blue, secondary assay (AID 2327); type: functional;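 also: NIH-3T3 mouse fibroblasts cultured with fluconazole at 8 µg/mL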
# [16] = C. albicans growth with fluconazole, confirmation, fluorescence, retest (AID 2467); type: functional, cell-based
# [17] = target: T6, High affinity choline transporter 1 (Homo sapiens, UniProt Q9GZV3); assay: CHT inhibitors, dose response, cell-based, 5-point CRC, membrane potential dye (AID 504840); type: functional
# T6 sequence (Q9GZV3 whole entry): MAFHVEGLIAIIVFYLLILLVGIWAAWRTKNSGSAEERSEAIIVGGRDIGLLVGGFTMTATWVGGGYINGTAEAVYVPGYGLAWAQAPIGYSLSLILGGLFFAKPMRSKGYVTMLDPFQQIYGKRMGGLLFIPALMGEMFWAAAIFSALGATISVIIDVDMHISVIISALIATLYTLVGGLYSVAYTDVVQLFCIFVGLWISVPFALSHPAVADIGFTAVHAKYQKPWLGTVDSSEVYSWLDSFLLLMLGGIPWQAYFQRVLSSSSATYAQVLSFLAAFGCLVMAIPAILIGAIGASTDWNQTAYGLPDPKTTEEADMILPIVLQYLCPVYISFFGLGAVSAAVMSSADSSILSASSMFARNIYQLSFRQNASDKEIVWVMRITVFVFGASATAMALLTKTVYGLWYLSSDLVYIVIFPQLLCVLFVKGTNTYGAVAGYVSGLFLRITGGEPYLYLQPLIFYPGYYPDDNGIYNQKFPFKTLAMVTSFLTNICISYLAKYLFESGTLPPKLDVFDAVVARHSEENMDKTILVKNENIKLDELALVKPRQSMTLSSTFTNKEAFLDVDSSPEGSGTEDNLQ
# Cytochrome P450 2D6 = Cytochrome P450 2D6 (Homo sapiens, UniProt P10635);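 also: CYP2D6 member of a cytochrome P450 panel assay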
# Chain of Cytochrome P450 2D6 (P10635 whole entry): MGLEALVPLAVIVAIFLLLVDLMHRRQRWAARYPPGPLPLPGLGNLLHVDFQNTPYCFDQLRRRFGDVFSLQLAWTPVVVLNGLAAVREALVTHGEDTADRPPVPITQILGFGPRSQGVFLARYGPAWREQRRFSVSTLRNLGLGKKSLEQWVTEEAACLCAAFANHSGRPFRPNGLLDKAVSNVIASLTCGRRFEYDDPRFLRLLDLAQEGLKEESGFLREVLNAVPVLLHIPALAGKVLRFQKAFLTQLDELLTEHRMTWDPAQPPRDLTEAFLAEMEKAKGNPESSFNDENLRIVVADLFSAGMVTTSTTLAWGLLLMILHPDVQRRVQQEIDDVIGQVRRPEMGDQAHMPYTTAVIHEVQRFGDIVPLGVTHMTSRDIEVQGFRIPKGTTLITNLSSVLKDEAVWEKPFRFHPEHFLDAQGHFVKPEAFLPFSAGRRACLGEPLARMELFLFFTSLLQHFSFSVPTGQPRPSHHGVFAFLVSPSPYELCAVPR
# Chain of Large T antigen (P03070 whole entry): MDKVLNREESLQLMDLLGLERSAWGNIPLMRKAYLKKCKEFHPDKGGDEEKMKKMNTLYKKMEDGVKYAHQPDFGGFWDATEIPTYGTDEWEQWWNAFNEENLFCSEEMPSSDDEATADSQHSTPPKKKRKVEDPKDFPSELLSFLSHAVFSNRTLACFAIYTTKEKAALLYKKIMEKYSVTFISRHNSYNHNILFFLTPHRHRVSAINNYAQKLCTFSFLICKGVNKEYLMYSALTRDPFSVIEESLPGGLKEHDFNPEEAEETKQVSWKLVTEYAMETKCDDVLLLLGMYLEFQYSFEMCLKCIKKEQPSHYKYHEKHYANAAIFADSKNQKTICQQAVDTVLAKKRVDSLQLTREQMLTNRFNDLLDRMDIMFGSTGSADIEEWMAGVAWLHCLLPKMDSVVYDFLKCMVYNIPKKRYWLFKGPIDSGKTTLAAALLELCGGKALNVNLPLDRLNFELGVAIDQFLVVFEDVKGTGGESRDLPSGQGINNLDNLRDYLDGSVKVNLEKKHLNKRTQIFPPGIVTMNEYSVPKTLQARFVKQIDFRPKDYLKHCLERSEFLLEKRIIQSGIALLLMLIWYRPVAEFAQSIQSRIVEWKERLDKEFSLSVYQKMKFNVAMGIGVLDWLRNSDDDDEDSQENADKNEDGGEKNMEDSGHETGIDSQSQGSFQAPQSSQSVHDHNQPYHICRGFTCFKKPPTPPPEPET
structure (smiles),measurement,setting,value
O=C1C=CC(=O)N1c1ccc(O)cc1,IC50,Large T antigen,81 µM (active)
same,AC50,[1],3.13 µM (active)
O=c1c2ccccc2nnn1CSc1nnc(COc2ccc(Cl)cc2)n1Cc1ccco1,AC50,[1],3.26 µM (active)
same,AC50,[2],15.2 µM (active)
same,AC50,[3],1.12 µM (active)
CCN(CC)c1ccc(/C=C2/C(=O)NC(=O)N(CC3CCCO3)C2=O)cc1 (stereo not given),AC50,Cytochrome P450 2C9,inconclusive
Cc1cc(C)cc(NC(=O)CCc2nc3ccccc3[nH]2)c1,AC50,Cytochrome P450 1A2,3.16 µM (inconclusive)
same,AC50,Cytochrome P450 2C9,inconclusive
COc1cc(CNCCc2c[nH]c3ccccc23)ccc1OCc1ccccc1F,EC50,[4],0.196 µM (active)
same,EC50,[5],15.3 µM (active)
same,EC50,[6],> 60 µM (inconclusive)
same,EC50,[7],13.6 µM (active)
same,AC50,[8],4.72 µM (active)
same,IC50,[9],> 20 µM (inactive)
CCN1CCN(C(c2ccc(C(F)(F)F)cc2)c2ccc3cccnc3c2O)CC1 (stereo not given),EC50,[10],3.02 µM (active)
same,EC50,Streptococcus,3.5 µM (active)
same,AC50,[1],1.36 µM (active)
same,AC50,INS1,2.15 µM (active)
same,IC50,[11],> 66 µM (inactive)
same,IC50,[12],> 66 µM (inactive)
COc1ccccc1N1CCN(CC(=O)c2c(C)[nH]c3cc(C)ccc23)CC1,EC50,[13],5.63 µM (active)
same,AC50,[14],5.47 µM (active)
same,EC50,Protein RecA,94.2 µM (active)
Cc1ccc(C(c2nnnn2C(C)(C)C)N(Cc2ccco2)Cc2cccs2)cc1 (stereo not given),EC50,[4],2.26 µM (active)
same,EC50,[6],> 30 µM (not active)
same,EC50,[13],6.33 µM (active)
COC(=O)c1c(NC(=O)c2nc3ccccc3s2)sc2c1CCN(C(C)=O)C2,IC50,[9],> 20 µM (inactive)
C/C(=N\OC(=O)c1cccc(C)c1)c1sc(-c2ccccc2)nc1C,AC50,Cytochrome P450 2C19,8.91 µM (inconclusive)
same,AC50,Cytochrome P450 2C9,inconclusive
O=c1oc2ccccc2c(O)c1Cc1cc(Cl)c2cccnc2c1O,EC50,[15],76.3 µM (active)
same,EC50,[16],> 38 µM (not active)
same,AC50,[8],1.09 µM (active)
same,AC50,[1],7.2 µM (active)
same,IC50,[17],15.2 µM (active)
COc1ccc(C(CNC(=O)c2cc3c(s2)CCC(C)C3)N2CCCC2)cc1 (stereo not given),IC50,[9],> 20 µM (inactive)
CN1CCN(c2ncc3nc(-c4cc(F)cc(F)c4)c(=O)n(C)c3n2)CC1,AC50,Cytochrome P450 1A2,5.01 µM (inconclusive)
same,AC50,Cytochrome P450 2C9,inconclusive
Cc1cnc(CNc2ccnc(-c3cccnc3)n2)cn1,AC50,Cytochrome P450 2D6,25.1 µM (inconclusive)
same,AC50,Cytochrome P450 2C9,inconclusive
CN(C)/C=C/C(=O)c1ccc2noc(-c3cccc(F)c3)c2c1,AC50,[1],7.95 µM (active)
Cc1cc(N2CCN(C(=O)c3ccco3)CC2)n2ncc(-c3ccccc3)c2n1,AC50,[1],2.23 µM (active)
COc1ccccc1N1CCN(C(c2ccccc2Cl)c2nnnn2C(C)(C)C)CC1 (stereo not given),EC50,[13],11.7 µM (active)
Cc1ccc(S(=O)(=O)N[C@H]2COC(=O)C/C=C\[C@@H](C)COC(=O)C/C=C\[C@@H]2C)cc1,AC50,Cytochrome P450 2C9,inconclusive
CCC(c1nnnn1C(C)(C)C)N1CCN(c2cc(Cl)ccc2C)CC1 (stereo not given),EC50,[13],5.94 µM (active)
Cc1ccc(-c2nnc(CSc3nnc(COc4ccccc4)n3-c3ccccc3)o2)cc1,EC50,[13],3.32 µM (active)
CN1CCN(C(=S)NC(=O)c2ccc(S(=O)(=O)N3CCOCC3)cc2)CC1,IC50,[11],> 66 µM (inactive)
same,IC50,[12],> 66 µM (inactive)
CC(C)[C@@H]1CN=C(N)N1C[C@@H]1CCCN1C[C@H](C)N1C[C@@H](Cc2ccccc2)N(CCc2ccc(Cl)c(Cl)c2)C1=N,IC50,[9],> 20 µM (inactive)
CC1CCCCN1CCNC(=O)c1ccc2c(=O)n(Cc3ccc(Cl)cc3)c(=S)[nH]c2c1 (stereo not given),IC50,[9],> 20 µM (inactive)
Nc1ccc(S(=O)(=O)Nc2nccs2)cc1 [SULFATHIAZOLE],AC50,Cytochrome P450 2C9,inconclusive
